Reference: ChEMBL document CHEMBL3727350, “Agents and methods for treating ischemic and other diseases” (2014)
Active and inactive are the calls of the source. The rule behind the calls is not given here.

Columns and labels:
[1] = biological target: Transient receptor potential cation channel subfamily M member 7 (Rattus norvegicus) (UniProt Q925B3); assay: Inhibition of TRPM7 in cultured rat retinal ganglion cells exposed to oxygen glucose deprivation condition for 3 hrs assessed as protection against TRPM7-mediated cell death at by propidium iodide uptake assay; design: scale not given: the % may be the effect or the level left
[2] = biological target: Transient receptor potential cation channel subfamily M member 7 (Rattus norvegicus) (UniProt Q925B3); assay: Inhibition of TRPM7 in rat retinal explants exposed to oxygen glucose deprivation condition for 1 hr assessed as protection against TRPM7-mediated cell death at by propidium iodide uptake assay
Rattus norvegicus [3] = organism: Rattus norvegicus; assay: Reduction in retinal cell death in rat model of acute glaucoma assessed as reduction in TUNEL positive cells after exposure to 1 hr high IOP at 1 uM; assay type: functional, organism-based
[4] = biological target: Transient receptor potential cation channel subfamily M member 7 (Rattus norvegicus) (UniProt Q925B3); assay: Inhibition of TRPM7 in Sprague-Dawley rat retinal explants subjected to 1 hr oxygen-glucose deprivation assessed as reduction in retinal ischemia at 5 uM
[5] = biological target: Transient receptor potential cation channel subfamily M member 7 (Rattus norvegicus) (UniProt Q925B3); assay: Inhibition of TRPM7 in rat H9c2 cells assessed as protection against oxygen glucose deprivation-induced cell death at 0.05 to 5 uM pre-treated for 24 hrs before OGD; assay type: cell-based
[6] = biological target: Protein XNDC1N (Homo sapiens) (UniProt Q6ZNB5); assay: Inhibition of TRPC2 (unknown origin) expressed in HEK293 cells assessed as effect on agonist-induced Ca2+ changes; assay type: functional, cell-based
Mus musculus [7] = assay: Reduction in dead cells following LAD restriction of heart in mouse model of permanent LAD coronary artery ligation at 10 to 100 ug/kg, iv administered as single dose within 15 mins of LAD occlusion by TUNEL assay; assay type: functional, organism-based
[8] = biological target: Transient receptor potential cation channel subfamily M member 7 (Rattus norvegicus) (UniProt Q925B3); assay: Inhibition of TRPM7 in Sprague-Dawley rat retinal explants dissociated and subjected to 1 hr oxygen-glucose deprivation assessed as reduction in retinal cell death at 1 and 5 uM
[9] = biological target: Transient receptor potential cation channel subfamily M member 7 (Rattus norvegicus) (UniProt Q925B3); assay: Inhibition of TRPM7 in rat H9C2 cells assessed as reduction in channel currents at 0.3 to 30 uM by whole cell patch clamp assay; assay type: cell-based
[10] = biological target: Transient receptor potential cation channel subfamily M member 7 (Rattus norvegicus) (UniProt Q925B3); assay: Inhibition of TRPM7 in rat H9c2 cells assessed as protection against oxygen glucose deprivation-induced cell death at 0.05 to 5 uM in presence of 1 uM nifedipine; assay type: cell-based
[11] = biological target: Transient receptor potential cation channel subfamily M member 7 (Mus musculus) (UniProt Q923J1); assay: Inhibition of Tet-induced Flag-tagged mouse TRPM7 expressed in HEK293 cells assessed as inhibition of channel-mediated cell death in presence of Mg2+ incubated for 24 to 48 hrs by propidium iodide uptake assay; assay type: cell-based; design: concentration or dose not given beside the values
[12] = biological target: Transient receptor potential cation channel subfamily M member 2 (Homo sapiens) (UniProt O94759); assay: Inhibition of TRPM2 (unknown origin) expressed in HEK293 cells assessed as effect on agonist-induced Ca2+ changes; assay type: functional, cell-based
[13] = biological target: Transient receptor potential cation channel subfamily M member 7 (Mus musculus) (UniProt Q923J1); assay: Inhibition of TRPM7 in mouse primary neuronal cells exposed to oxygen glucose deprivation condition for 1 to 3 hrs assessed as reduction in TRPM7-mediated anoxic cell death dosed after oxygen glucose deprivation condition by propidium iodide uptake assay; conditions: Primary neuron
[14] = biological target: Glutamate NMDA receptor (Mus musculus) (UniProt P35436+Q91ZU9+Q03391+P35438+Q01097+Q01098+A2AIR5); assay: Inhibition of NMDA receptor in mouse cortical neurons assessed as effect on NMDA currents; assay type: protein-complex assay
Mus musculus [15] = organism: Mus musculus; assay: Inhibition of sodium channel in mouse cortical neurons assessed as effect on Na+ currents
[16] = biological target: Transient receptor potential cation channel subfamily M member 7 (Mus musculus) (UniProt Q923J1); assay: Inhibition of Tet-induced Flag-tagged mouse TRPM7 expressed in HEK293 cells assessed as reduction in channel currents at 2 mM using compound applied intracellularly by whole cell patch clamp assay; assay type: cell-based
[17] = biological target: Transient receptor potential cation channel subfamily A member 1 (Homo sapiens) (UniProt O75762); assay: Inhibition of TRPA1 ((unknown origin) expressed in HEK293 cells assessed as effect on agonist-induced Ca2+ changes; assay type: functional, cell-based
[18] = biological target: Transient receptor potential cation channel subfamily M member 7 (Mus musculus) (UniProt Q923J1); assay: Inhibition of Tet-induced Flag-tagged mouse TRPM7 expressed in HEK293 cells assessed as reduction in channel currents at 2 mM using compound applied extracellularly by whole cell patch clamp assay; assay type: cell-based
[19] = Inhibition of cell proliferation of human WERI cells at 10 uM incubated for 48 to 96 hrs; assay type: functional
[20] = biological target: Transient receptor potential cation channel subfamily M member 7 (Mus musculus) (UniProt Q923J1); assay: Inhibition of TRPM7 in mouse AML12 cells assessed as protection against oxygen glucose deprivation-induced cell death at 0.5 to 5 uM; assay type: cell-based
Mus musculus [21] = organism: Mus musculus; assay: Inhibition of potassium channel in mouse cortical neurons assessed as reduction in potassium currents at -10mV membrane potential
[22] = biological target: Transient receptor potential cation channel subfamily V member 1 (Homo sapiens) (UniProt Q8NER1); assay: Inhibition of TRPV1 (unknown origin) expressed in HEK293 cells assessed as effect on agonist-induced Ca2+ changes; assay type: functional, cell-based
[23] = biological target: Transient receptor potential cation channel subfamily M member 7 (Rattus norvegicus) (UniProt Q925B3); assay: Inhibition of TRPM7 in rat H9C2 cells exposed to 6 hrs oxygen glucose deprivation condition followed by 2 hrs recovery assessed as reduction in TRPM7-mediated anoxic cell death at 0.05 to 5 uM by propidium iodide uptake assay; assay type: cell-based
[24] = biological target: Transient receptor potential cation channel subfamily M member 7 (Rattus norvegicus) (UniProt Q925B3); assay: Inhibition of TRPM7 in rat H9c2 cells assessed as protection against oxygen glucose deprivation-induced cell death at 0.05 to 5 uM pre-treated for 24 hrs before OGD in presence of 1 uM nifedipine; assay type: cell-based
Rattus norvegicus [25] = assay: Analgesic activity in iv dosed rat model of formalin-induced inflammatory pain assessed reduction in formalin-induced phase-1 pain flinches; assay type: functional, organism-based
Rattus norvegicus [26] = assay: Analgesic activity in iv dosed rat model of formalin-induced inflammatory pain assessed reduction in formalin-induced phase-2 pain flinches; assay type: functional, organism-based
[27] = biological target: Transient receptor potential cation channel subfamily M member 7 (Rattus norvegicus) (UniProt Q925B3); assay: Inhibition of TRPM7 in rat H9c2 cells assessed as protection against oxygen glucose deprivation-induced cell death at 0.05 to 5 uM; assay type: cell-based
Mus musculus [28] = assay: Toxicity in mouse up to 150 uM, iv; assay type: organism-based; conditions: in vivo
Mus musculus [29] = organism: Mus musculus; assay: Inhibition of calcium channel in mouse cortical neurons assessed as effect on Ca2+ currents; assay type: functional
Mus musculus [30] = assay: Reduction in damage to heart in mouse model of myocardial infarction at 10 to 35 ug/kg; assay type: functional, organism-based
[31] = biological target: Transient receptor potential cation channel subfamily M member 7 (Mus musculus) (UniProt Q923J1); assay: Inhibition of Tet-induced Flag-tagged mouse TRPM7 expressed in HEK293 cells assessed as reduction in channel currents at 0.3 to 30 uM by whole cell patch clamp assay; assay type: cell-based
[32] = biological target: Transient receptor potential cation channel subfamily M member 7 (Rattus norvegicus) (UniProt Q925B3); assay: Inhibition of TRPM7 in rat H9C2 cells exposed to oxygen glucose deprivation condition for 1 to 6 hrs assessed as reduction in TRPM7-mediated anoxic cell death in presence of 1 uM nifedipine by propidium iodide uptake assay; assay type: cell-based
[33] = biological target: Transient receptor potential cation channel subfamily M member 7 (Rattus norvegicus) (UniProt Q925B3); assay: Inhibition of TRPM7 in rat H9c2 cells assessed as protection against oxygen glucose deprivation-induced cell death at 0.05 to 5 uM applied during OGD; assay type: cell-based
Mus musculus [34] = assay: Reduction in infarct volume in mouse model of permanent LAD coronary artery ligation at 10 to 335 ug/kg, iv administered as single dose within 15 mins of LAD occlusion by TTC staining based method; assay type: functional, organism-based
[35] = biological target: Transient receptor potential cation channel subfamily M member 7 (Mus musculus) (UniProt Q923J1); assay: Inhibition of TRPM7 in mouse primary neuronal cells exposed to oxygen glucose deprivation condition for 1 to 3 hrs assessed as reduction in TRPM7-mediated anoxic cell death dosed before oxygen glucose deprivation condition by propidium iodide uptake assay; conditions: Primary neuron
[36] = biological target: Transient receptor potential cation channel subfamily M member 4 (Homo sapiens) (UniProt Q8TD43); assay: Inhibition of TRPM4 (unknown origin) expressed in HEK293 cells assessed as effect on agonist-induced Ca2+ changes; assay type: functional, cell-based
[37] = biological target: Transient receptor potential cation channel subfamily M member 6 (Homo sapiens) (UniProt Q9BX84); assay: Inhibition of TRPM6 (unknown origin) expressed in HEK293 cells assessed as effect on agonist-induced Ca2+ changes; assay type: functional, cell-based
[38] = biological target: Glutamate receptor ionotropic, AMPA (Mus musculus) (UniProt P23819+P23818+Q9Z2W8+Q9Z2W9); assay: Inhibition of AMPA receptor in mouse cortical neurons assessed as effect on AMPA currents; assay type: protein-complex assay
[39] = biological target: Transient receptor potential cation channel subfamily M member 7 (Mus musculus) (UniProt Q923J1); assay: Inhibition of TRPM7 in mouse mouse primary cortical neurons exposed to 1 hrs oxygen glucose deprivation condition assessed as reduction in TRPM7-mediated anoxic cell death at 1.25 to 10 uM measured after 20 hrs by propidium iodide uptake assay; assay type: cell-based; conditions: Cerebral cortex neuron
[40] = biological target: Transient receptor potential cation channel subfamily M member 7 (Mus musculus) (UniProt Q923J1); assay: Inhibition of TRPM7 in mouse mouse primary cortical neurons exposed to 2 hrs oxygen glucose deprivation condition assessed as reduction in TRPM7-mediated anoxic cell death measured after 20 hrs by propidium iodide uptake assay; assay type: cell-based; conditions: Cerebral cortex neuron

Chain of Transient receptor potential cation channel subfamily M member 7 (Mus musculus) (Q923J1 whole entry): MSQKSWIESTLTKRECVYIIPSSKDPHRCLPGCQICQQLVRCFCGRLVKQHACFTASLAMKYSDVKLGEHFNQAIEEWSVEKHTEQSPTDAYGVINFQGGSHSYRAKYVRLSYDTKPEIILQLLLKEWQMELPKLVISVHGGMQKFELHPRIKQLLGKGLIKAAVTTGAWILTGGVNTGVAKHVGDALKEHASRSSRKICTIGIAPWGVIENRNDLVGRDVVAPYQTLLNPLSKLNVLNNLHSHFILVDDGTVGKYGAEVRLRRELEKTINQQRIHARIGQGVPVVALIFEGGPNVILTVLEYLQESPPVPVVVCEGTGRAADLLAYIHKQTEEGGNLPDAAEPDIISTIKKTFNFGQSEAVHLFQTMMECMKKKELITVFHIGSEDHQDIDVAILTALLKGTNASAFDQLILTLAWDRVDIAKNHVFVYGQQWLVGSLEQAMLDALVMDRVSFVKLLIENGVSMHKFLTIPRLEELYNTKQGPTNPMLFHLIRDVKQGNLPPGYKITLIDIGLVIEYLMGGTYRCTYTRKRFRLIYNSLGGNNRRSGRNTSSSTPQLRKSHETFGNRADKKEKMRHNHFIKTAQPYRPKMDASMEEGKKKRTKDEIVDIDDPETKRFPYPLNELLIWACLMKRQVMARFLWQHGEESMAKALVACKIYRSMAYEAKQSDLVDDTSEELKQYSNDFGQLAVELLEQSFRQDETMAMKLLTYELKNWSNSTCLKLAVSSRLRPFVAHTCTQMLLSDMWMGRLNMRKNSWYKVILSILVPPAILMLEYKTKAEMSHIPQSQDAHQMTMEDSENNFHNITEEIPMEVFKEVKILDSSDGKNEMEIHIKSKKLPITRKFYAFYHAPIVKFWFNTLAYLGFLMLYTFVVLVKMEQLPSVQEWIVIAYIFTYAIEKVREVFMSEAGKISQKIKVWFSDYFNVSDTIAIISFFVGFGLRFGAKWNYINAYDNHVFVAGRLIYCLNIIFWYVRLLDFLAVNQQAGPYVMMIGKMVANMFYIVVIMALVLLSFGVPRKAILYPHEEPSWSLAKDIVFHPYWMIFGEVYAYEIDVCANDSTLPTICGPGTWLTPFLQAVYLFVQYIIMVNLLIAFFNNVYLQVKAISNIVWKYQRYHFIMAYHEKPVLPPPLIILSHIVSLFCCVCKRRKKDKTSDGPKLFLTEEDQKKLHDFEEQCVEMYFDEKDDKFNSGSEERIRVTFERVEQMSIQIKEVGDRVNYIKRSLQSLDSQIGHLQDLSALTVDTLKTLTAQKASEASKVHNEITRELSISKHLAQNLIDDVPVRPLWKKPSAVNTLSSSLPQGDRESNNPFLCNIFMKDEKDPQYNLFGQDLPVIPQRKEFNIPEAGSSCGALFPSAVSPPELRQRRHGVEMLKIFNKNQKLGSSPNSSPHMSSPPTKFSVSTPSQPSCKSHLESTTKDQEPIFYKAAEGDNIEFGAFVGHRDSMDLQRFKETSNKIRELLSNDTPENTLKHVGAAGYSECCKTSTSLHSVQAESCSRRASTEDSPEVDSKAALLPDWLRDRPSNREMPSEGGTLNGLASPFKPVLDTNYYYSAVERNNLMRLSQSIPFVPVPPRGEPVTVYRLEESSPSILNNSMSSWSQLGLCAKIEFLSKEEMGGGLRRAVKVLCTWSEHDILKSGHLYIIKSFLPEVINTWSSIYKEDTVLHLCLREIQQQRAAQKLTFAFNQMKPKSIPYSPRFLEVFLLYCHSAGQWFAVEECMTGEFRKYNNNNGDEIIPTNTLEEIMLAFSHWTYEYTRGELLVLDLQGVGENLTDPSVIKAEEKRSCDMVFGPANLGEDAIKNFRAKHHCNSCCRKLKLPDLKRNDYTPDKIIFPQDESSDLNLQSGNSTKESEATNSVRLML
Chain of Transient receptor potential cation channel subfamily M member 7 (Rattus norvegicus) (Q925B3 whole entry): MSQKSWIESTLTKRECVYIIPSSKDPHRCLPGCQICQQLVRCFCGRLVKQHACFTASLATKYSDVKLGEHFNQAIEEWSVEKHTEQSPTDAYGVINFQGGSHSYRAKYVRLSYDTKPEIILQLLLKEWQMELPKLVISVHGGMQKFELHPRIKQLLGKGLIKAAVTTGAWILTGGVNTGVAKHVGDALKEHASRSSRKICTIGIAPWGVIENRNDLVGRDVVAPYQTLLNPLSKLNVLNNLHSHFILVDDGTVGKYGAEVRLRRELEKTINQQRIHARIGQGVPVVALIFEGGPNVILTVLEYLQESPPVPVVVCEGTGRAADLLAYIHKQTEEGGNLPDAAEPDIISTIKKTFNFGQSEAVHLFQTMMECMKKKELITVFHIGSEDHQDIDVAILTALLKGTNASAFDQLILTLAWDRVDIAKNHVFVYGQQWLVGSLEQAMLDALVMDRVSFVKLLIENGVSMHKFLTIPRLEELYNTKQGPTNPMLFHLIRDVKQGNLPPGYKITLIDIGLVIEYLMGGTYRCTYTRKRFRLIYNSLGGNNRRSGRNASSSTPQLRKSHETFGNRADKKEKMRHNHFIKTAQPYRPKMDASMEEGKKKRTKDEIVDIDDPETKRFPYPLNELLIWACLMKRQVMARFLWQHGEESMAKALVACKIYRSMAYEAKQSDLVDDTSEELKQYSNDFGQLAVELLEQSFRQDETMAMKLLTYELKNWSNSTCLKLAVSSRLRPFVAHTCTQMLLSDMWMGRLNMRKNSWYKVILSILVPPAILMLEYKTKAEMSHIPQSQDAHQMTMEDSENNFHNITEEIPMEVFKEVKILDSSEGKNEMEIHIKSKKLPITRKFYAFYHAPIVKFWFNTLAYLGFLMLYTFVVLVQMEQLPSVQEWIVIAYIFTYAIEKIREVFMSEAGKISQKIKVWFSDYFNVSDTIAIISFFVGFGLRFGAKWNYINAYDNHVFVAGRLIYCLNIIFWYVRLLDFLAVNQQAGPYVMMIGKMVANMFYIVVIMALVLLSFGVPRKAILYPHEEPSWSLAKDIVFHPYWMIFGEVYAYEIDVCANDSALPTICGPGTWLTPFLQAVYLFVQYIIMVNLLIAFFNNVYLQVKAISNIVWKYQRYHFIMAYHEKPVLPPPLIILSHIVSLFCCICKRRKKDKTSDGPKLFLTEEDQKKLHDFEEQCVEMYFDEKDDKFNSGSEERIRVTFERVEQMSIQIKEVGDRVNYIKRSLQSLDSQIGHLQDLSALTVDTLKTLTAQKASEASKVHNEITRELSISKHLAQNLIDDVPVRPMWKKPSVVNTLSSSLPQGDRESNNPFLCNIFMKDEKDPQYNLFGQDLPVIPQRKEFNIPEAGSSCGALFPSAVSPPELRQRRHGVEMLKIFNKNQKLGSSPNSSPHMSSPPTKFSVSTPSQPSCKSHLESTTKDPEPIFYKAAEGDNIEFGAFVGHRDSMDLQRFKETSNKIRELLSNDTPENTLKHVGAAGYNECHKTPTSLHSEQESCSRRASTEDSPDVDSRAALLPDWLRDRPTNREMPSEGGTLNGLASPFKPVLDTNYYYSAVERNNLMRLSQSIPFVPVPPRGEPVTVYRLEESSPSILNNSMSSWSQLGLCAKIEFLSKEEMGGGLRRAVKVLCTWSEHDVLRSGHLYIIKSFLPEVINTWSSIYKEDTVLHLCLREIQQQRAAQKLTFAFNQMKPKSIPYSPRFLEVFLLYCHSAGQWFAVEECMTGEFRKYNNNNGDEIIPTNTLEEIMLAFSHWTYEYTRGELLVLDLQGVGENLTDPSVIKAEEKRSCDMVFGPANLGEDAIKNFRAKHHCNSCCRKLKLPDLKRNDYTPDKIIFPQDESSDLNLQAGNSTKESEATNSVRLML
Chain of Transient receptor potential cation channel subfamily V member 1 (Homo sapiens) (Q8NER1 whole entry): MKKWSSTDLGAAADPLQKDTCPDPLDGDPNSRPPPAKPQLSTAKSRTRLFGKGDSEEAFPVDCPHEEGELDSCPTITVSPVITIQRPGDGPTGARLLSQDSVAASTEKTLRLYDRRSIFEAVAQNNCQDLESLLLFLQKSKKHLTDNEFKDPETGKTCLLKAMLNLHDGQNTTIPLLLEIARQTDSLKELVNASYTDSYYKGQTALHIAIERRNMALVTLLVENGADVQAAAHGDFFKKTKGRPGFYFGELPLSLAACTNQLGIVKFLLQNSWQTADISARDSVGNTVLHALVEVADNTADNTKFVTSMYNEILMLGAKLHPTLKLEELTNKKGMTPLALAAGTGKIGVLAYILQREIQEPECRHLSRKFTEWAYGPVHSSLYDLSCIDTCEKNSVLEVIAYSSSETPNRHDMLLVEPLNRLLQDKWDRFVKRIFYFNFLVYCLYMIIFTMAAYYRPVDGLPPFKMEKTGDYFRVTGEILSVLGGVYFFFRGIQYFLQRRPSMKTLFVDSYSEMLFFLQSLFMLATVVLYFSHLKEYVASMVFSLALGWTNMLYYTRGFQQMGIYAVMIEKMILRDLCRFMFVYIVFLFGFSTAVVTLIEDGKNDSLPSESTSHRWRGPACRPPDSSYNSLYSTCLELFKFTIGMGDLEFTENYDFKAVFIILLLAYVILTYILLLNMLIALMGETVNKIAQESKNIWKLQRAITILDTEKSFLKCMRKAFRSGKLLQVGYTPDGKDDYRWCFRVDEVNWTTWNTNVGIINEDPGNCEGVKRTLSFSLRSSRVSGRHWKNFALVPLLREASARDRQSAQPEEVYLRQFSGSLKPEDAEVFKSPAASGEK
Chain of Protein XNDC1N (Homo sapiens) (Q6ZNB5 whole entry): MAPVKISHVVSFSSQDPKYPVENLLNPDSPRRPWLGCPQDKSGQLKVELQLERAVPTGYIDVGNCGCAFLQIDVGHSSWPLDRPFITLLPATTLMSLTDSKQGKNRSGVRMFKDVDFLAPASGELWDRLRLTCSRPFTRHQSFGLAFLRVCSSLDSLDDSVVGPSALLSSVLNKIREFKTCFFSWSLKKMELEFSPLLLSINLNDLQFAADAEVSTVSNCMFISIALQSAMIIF

## Cc1c(Cc2ccc(Cl)c(Cl)c2)c(=O)oc2cc(O)ccc12
[1]
  Activity: 66%
[2]
  inhibition: Active
Rattus norvegicus [3]
  Activity: Active
[4]
  inhibition: Active
[5]
  inhibition: Active
[6]
  inhibition: inactive
Mus musculus [7]
  Activity: Active
[8]
  inhibition: Active
[9]
  inhibition: Active
[10]
  inhibition: Active
[11]
  inhibition: Active
[12]
  inhibition: inactive
[13]
  inhibition: Active
[14]
  inhibition: inactive
Mus musculus [15]
  inhibition: inactive
[16]
  inhibition: inactive
[17]
  inhibition: inactive
[18]
  inhibition: Active
[19]
  inhibition at 10 µM: > 20%
[20]
  inhibition: Active
Mus musculus [21]
  inhibition: 20%
[22]
  inhibition: inactive
[23]
  inhibition: Active
[24]
  inhibition: Active
Rattus norvegicus [25]
  Activity: inactive
Rattus norvegicus [26]
  Activity: Active
[27]
  inhibition: Active
Mus musculus [28]
  Activity: Non-toxic
Mus musculus [29]
  inhibition: inactive
Mus musculus [30]
  Activity: Active
[31]
  inhibition: Active
[32]
  inhibition: Active
[33]
  inhibition: Active
Mus musculus [34]
  Activity: Active
[35]
  inhibition: Active
[36]
  inhibition: inactive
[37]
  inhibition: inactive
[38]
  inhibition: inactive
[39]
  inhibition: Active
[40]
  inhibition: Active
